“Also recorded” adds a separate entry of the source.
What was measured:
Type in all cases: cell-based, human
IMR-90 fibroblasts = experiment: Proteome profiler of angiogenic proteins secreted by fibroblasts; conditions: single agent compared with CPX+S1P
Description: (§1) FIG. 4: CPX and S1P induce secretion of different angiogenic proteins by endothelial cells and fibroblasts. […] (E) and (J): representative images of 3 proteomic profiler membranes showing differences in protein secretion between CPX and S1P treated group and non-treated group (culture media control). (K) and (L): ELISA quantitation of PlGF and VEGF corroborating semi-quantitative results shown in A-I. The negative values in the plots denote the cellular uptake of the measured proteins as opposed to secrete them. * p<0.05 As the experimental set-up favoured soluble factors as messengers between the two cell types the secretion of angiogenic factors by fibroblasts and endothelial cells in the presence of CPX and S1P, respectively, was assessed. In fibroblasts, CPX+S1P expression of HGF (1.4 fold), IGFBP-2 (1.8 fold), uPA (1.6 fold) and VEGF (11 fold). […] In fibroblasts an increase of VEGF secretion which was 1819±754.1 (±standard error) pg/ml-Million cell-day was confirmed.

IMR90 cells = experiment: ELISA of MCP-1 secreted by IMR90 cultured in EC conditioned medium
Description: FIG. 5: Endothelial CM modulates growth factor secretion by fibroblasts. (A) ELISA: fibroblasts secrete 5 times more MCP-1 cultured in EC CM. […] (B) and (C): semi-quantitative proteomic array plots showing clearance of EC secreted endothelin-1 and EGF from culture media in the presence of fibroblasts. […] To study the influence of endothelial cells on fibroblasts IMR90 cells were cultured in EC conditioned medium with or without the addition of CPX+S1P, and quantified factors secreted by fibroblasts by ELISA. […] Endothelial cell CM induced the secretion of MCP-1 by fibroblasts by 3-fold in the absence of any CPX+S1P induction, however, the combination of both pharmacological agents increased MCP-1 secretion by a further 20%.

endothelia (HUVEC) = experiment: ELISA quantitation of PlGF secretion by endothelial cells
Description: as §1, with “p<0.05” for “p<0.05 As the experimental set-up favoured soluble factors as messengers between the two cell types the secretion of angiogenic factors by fibroblasts and endothelial cells in the presence of CPX and S1P, respectively, was assessed.”

HUVEC = experiment: Proteome profiler of angiogenic proteins secreted by endothelial cells; conditions: single agent compared with CPX+S1P
Description: FIG. 4: CPX and S1P induce secretion of different angiogenic proteins by endothelial cells and fibroblasts. […] (E) and (J): representative images of 3 proteomic profiler membranes showing differences in protein secretion between CPX and S1P treated group and non-treated group (culture media control). (K) and (L): ELISA quantitation of PlGF and VEGF corroborating semi-quantitative results shown in A-I. The negative values in the plots denote the cellular uptake of the measured proteins as opposed to secrete them. * p<0.05 As the experimental set-up favoured soluble factors as messengers between the two cell types the secretion of angiogenic factors by fibroblasts and endothelial cells in the presence of CPX and S1P, respectively, was assessed. Proteome profiler data indicated the increased secretion of several proteins including PlGF (6 fold), IL-8 (3 fold), EGF (2.9 fold) and endothelin-1 (1.5 fold) by CPX+S1P by endothelial cells.

fibroblasts (IMR-90) = experiment: ELISA quantitation of VEGF secretion by fibroblasts
Description: as §1, with “p<0.05” for “p<0.05 As the experimental set-up favoured soluble factors as messengers between the two cell types the secretion of angiogenic factors by fibroblasts and endothelial cells in the presence of CPX and S1P, respectively, was assessed.”

Row | Compound | increased secretion of HGF, IGFBP-2, uPA and VEGF by fibroblasts, single agent (IMR-90 fibroblasts) | effect on MCP-1 secretion by fibroblasts, monosubstance (IMR90 cells) | effect on PlGF secretion rate (endothelia (HUVEC)) | increased secretion of PlGF, IL-8, EGF and endothelin-1 by endothelial cells, single agent (HUVEC) | effect on VEGF secretion (fibroblasts (IMR-90))
1 | CCCCCCCCCCCCC/C=C/[C@@H](O)[C@@H](N)COP(=O)(O)O [S1P, sphingosine 1-phosphate] | none were observed | neither S1P nor CPX were able to increase basal MCP-1 secretion; also recorded: No significant difference | did not show any effect | none were observed | did not elicit measurable effects
2 | Cc1cc(C2CCCCC2)n(O)c(=O)c1 [CPX, ciclopirox olamine] | Highly comparable increases; also recorded: main compound causing the observed upregulation | neither S1P nor CPX were able to increase basal MCP-1 secretion; also recorded: No significant difference | – | Highly comparable increases; also recorded: main compound causing the observed upregulation | –

Source: patent US9446031B2, “Compositions and methods for neovascularization” (National University of Singapore, priority 2012, dated 2016)
